Data on three molecules can be found in publication PMC4672351, “Drug-Drug Interaction Potentials of Tyrosine Kinase Inhibitors via Inhibition of UDP-Glucuronosyltransferases” (Scientific Reports, 2015).

Several values for one entry are separate records, joined by “and”; a condition that tells them apart may be missing. Identical values can stand only once.

One data set has as its target T1, UGT1A6 (Homo sapiens, UniProt P19224).
T1 construct: purchased BD Gentest (Woburn, MA); host or cells: baculovirus-infected insect cells
T1 sequence (P19224 27-532): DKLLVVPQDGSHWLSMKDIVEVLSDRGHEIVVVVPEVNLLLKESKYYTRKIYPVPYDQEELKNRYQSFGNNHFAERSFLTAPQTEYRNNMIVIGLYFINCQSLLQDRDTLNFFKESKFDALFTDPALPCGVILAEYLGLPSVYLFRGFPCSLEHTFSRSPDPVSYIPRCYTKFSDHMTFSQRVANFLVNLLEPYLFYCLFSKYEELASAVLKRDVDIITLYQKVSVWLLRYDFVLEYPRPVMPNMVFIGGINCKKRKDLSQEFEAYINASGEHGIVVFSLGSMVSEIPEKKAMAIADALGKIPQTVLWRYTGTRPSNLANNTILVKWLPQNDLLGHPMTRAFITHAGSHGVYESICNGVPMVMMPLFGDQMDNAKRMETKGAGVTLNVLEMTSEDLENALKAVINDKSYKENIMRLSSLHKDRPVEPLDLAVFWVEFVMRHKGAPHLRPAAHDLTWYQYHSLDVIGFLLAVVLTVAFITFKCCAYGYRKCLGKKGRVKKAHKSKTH
As to the kind of experiment: Inhibition of 4-MU glucuronidation by recombinant UGT1A6. The class given is in vitro ADME. Conditions: recombinant UGT1A6, pH 7.4, probe 4-MU, 100 μM inhibitor, 4-MU substrate, positive control diclofenac, read-out: Remaining activities (%) of UGT1A6.

For data set [1], the target named is T2, UGT1A9 (Homo sapiens, UniProt O60656).
T2 sequence (O60656 26-530): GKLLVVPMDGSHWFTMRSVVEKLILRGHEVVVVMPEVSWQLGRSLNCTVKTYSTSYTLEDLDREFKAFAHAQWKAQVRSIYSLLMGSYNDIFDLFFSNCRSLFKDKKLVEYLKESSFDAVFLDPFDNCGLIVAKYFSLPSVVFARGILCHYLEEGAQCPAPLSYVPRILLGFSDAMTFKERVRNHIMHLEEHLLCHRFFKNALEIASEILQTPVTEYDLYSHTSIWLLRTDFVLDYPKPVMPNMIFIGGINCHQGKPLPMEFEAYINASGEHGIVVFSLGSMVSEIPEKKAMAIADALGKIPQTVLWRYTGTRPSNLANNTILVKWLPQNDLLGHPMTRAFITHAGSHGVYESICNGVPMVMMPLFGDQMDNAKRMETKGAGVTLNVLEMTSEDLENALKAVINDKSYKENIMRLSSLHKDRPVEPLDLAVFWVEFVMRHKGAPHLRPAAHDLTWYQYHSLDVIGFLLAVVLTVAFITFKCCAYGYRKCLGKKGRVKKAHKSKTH

In data set [2] the target is T2, UGT1A9. Briefly: biochemical.
The target of another data set is T3, UGT1A10 (Homo sapiens, UniProt Q9HAW8).
T3 sequence (Q9HAW8 26-530): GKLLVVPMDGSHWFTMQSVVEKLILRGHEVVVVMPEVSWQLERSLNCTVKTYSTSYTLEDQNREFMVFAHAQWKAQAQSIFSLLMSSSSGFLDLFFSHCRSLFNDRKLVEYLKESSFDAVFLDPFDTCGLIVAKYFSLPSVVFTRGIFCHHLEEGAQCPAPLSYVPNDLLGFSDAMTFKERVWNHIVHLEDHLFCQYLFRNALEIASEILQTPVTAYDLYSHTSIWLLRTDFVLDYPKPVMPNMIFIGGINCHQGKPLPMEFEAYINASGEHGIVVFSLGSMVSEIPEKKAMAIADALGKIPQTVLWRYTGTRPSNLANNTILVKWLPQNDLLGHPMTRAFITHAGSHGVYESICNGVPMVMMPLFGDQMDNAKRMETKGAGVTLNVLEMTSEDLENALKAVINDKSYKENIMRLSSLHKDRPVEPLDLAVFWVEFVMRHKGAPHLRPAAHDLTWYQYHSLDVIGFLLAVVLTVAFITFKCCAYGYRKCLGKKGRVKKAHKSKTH
As to the kind of experiment: Inhibition of 4-MU glucuronidation by recombinant UGT1A10. The settings on record: recombinant UGT1A10, pH 7.4, probe 4-MU.

In a further data set the target is T4, UGT2B15 (Homo sapiens, UniProt P54855).
T4 sequence (P54855 24-530): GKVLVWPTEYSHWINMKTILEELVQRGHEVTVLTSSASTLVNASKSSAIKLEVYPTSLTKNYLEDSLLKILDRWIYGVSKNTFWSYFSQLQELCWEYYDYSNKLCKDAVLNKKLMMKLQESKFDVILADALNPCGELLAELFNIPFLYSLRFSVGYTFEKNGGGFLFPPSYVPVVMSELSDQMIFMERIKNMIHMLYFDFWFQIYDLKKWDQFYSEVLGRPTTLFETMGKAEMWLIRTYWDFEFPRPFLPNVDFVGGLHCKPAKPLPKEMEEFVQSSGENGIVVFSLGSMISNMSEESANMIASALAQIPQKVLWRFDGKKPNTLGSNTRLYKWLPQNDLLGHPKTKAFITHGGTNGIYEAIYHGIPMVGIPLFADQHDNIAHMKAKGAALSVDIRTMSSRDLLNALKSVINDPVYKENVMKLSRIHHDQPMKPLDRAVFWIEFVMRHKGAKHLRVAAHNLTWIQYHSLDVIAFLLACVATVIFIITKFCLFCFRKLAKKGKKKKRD
As to the kind of experiment: Inhibition of 4-MU glucuronidation by recombinant UGT2B15. Conditions: recombinant UGT2B15, pH 7.4, probe 4-MU.

The target in another data set is T5, UGT1A7 (Homo sapiens, UniProt Q9HAW7).
T5 sequence (Q9HAW7 26-530): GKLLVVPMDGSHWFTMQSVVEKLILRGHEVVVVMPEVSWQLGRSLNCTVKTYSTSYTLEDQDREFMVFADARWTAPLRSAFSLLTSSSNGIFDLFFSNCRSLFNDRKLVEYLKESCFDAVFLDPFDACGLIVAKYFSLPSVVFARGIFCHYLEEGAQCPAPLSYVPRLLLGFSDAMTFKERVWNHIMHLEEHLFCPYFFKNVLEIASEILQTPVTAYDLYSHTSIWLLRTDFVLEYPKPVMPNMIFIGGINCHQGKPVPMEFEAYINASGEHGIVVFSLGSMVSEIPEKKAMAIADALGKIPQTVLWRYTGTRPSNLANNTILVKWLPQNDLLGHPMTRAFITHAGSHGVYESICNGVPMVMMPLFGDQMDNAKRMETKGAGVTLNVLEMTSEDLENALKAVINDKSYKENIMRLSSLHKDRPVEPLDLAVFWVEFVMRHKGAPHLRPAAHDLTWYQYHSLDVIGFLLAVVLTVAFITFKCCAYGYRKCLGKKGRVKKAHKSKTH
Briefly: Prediction of DDI risk (AUCi/AUC) from in vitro data, UGT1A7 substrates. On the set-up: purchased BD Gentest (Woburn, MA); host or cells: baculovirus-infected insect cells.

The conditions of data set [3]: clinical study; ref [16]; cited from earlier work.

Regarding `CNC(=O)c1ccccc1Sc1ccc2c(/C=C/c3ccccn3)n[nH]c2c1` [Axitinib, axitinib], the activity at 30 min, 100 µM on UGT1A6 amounted to 85.8 ± 3.5%. The “Predicted AUCi/AUC ratio of UGT1A9 substrates” value on UGT1A9 [1] (fm is 1) was ~1. Further, the midpoint of inhibition against UGT1A9 [2], the IC50, lay at 3.6 ± 0.7 µM. Moreover, the activity at 120 min, 100 µM at UGT1A10 is 55.5 ± 2.7%; at UGT2B15 it was 49.3 ± 5.2%. In addition, on UGT1A7 (fm is 1), the “Predicted AUCi/AUC ratio of UGT1A7 substrates” value is on record as ~1.
Regarding `CS(=O)(=O)CCNCc1ccc(-c2ccc3ncnc(Nc4ccc(OCc5cccc(F)c5)c(Cl)c4)c3c2)o1` [Lapatinib, lapatinib], on UGT1A6, the activity at 30 min, 100 µM amounted to 88.4 ± 5.9%. Also, in data set [3], the “Increase in the AUC of SN-38 on co-administration with irinotecan” value was 41% and ~ 40%. The results for the activity at 120 min, 100 µM at UGT1A10 and on UGT2B15 were 73.6 ± 4.8% and 110 ± 3.1%, respectively. Further, at UGT1A7 (fm not given, Imax,u used), the “Predicted increase in the AUC of substrate by UGT1A7 inhibition” value is recorded as ~1%.
Consider `COc1cc2c(Nc3ccc(Br)cc3F)ncnc2cc1OCC1CCN(C)CC1` [Vandetanib, vandetanib], for which the activity at 30 min, 100 µM on UGT1A6 was 55.1 ± 1.1%. Also, the “Predicted increase in the AUC of substrate by UGT1A9 inhibition” value at UGT1A9 [1] (fm not given) is reported as “about 2%”. Moreover, on UGT1A9 [2], the midpoint of inhibition, the IC50, lay at 5 ± 0.4 µM and the inhibitory constant (Ki) is 9 ± 1.2 µM. The activity at 120 min, 100 µM at UGT1A10 came to 49 ± 0.4%. Further, the activity at 120 min, 100 µM on UGT2B15 turned out to be 79.2 ± 1.4%.
